± gives the standard deviation of the averaged measurements.
What was measured:
Conditions in all cases: treatment time: 3 days
UT-SCC-81 = assay: drug sensitivity score (DSS); higher = more sensitive; extreme values may be limits of the assay
How it was run: (§1)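 HPV-negative HNSCC cell lines were seeded at 500 cells/well in 384-well plates on plastic, on Matrigel- or Myogel-coated wells (500 µg/mL), or embedded in Matrigel or Myogel plus rat collagen I. Compounds were given at five 10-fold concentrations for 3 days, and viability was read by CellTiter-Glo 2.0 luminescence. Signals were normalised to vehicle (0.1% DMSO) and cell-killing control wells. Percent-inhibition dose–response curves were fitted in the FIMM pipeline to derive IC50, maximal inhibition and drug sensitivity score.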

UT-SCC-28 = assay: as above
How it was run: as §1

UT-SCC-8 = assay: as above
How it was run: as §1

UT-SCC-14 = assay: as above
How it was run: as §1

UT-SCC-106A = assay: as above
How it was run: as §1

UT-SCC-40 = assay: as above
How it was run: as §1

UT-SCC-73 = assay: as above
How it was run: as §1

UT-SCC-42B = assay: as above
How it was run: as §1

UT-SCC-24B = assay: as above
How it was run: as §1

UT-SCC-44 = assay: as above
How it was run: as §1

UT-SCC-42A = assay: as above
How it was run: as §1

UT-SCC-24A = assay: drug sensitivity score (DSS); higher = more sensitive
Protocol: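 HNSCC cell lines (500 cells/well, 384-well) were cultured on plastic, on top of (2D) or embedded (3D) in Matrigel or human leiomyoma matrix Myogel (500 ug/mL; Myogel 3D mixed with rat collagen I). Cells were treated for 3 days with 5 ten-fold concentrations of each drug, and viability was read by CellTiter-Glo. Suffixes _1/_2/_3 on drug names are replicates.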

[1] = culture condition: embedded in Matrigel
[2] = culture condition: embedded in Myogel + collagen I
[3] = culture condition: on top of Matrigel
[4] = culture condition: on top of Myogel
[5] = culture condition: plastic 2D (no matrix)

COc1cc2ncnc(Nc3ccc(F)c(Cl)c3)c2cc1OCCCN1CCOCC1 [Gefitinib]
drug sensitivity score (UT-SCC-81; [1]): 23.2 ± 0.32 DSS | drug sensitivity score (UT-SCC-81; [2]): 1.57 ± 2.7 DSS | drug sensitivity score (UT-SCC-81; [3]): 10.8 ± 5.8 DSS | drug sensitivity score (UT-SCC-81; [4]): 1 ± 1.1 DSS | drug sensitivity score (UT-SCC-81; [5]): 3.83 ± 5.2 DSS | drug sensitivity score (UT-SCC-28; [1]): 0.767 ± 1.3 DSS | drug sensitivity score (UT-SCC-28; [2]): 0 DSS | drug sensitivity score (UT-SCC-28; [3]): 0.433 ± 0.75 DSS | drug sensitivity score (UT-SCC-28; [5]): 0 DSS | drug sensitivity score (UT-SCC-8; [1]): 14 ± 4.7 DSS | drug sensitivity score (UT-SCC-8; [2]): 0 DSS | drug sensitivity score (UT-SCC-8; [3]): 7.87 ± 2.8 DSS | drug sensitivity score (UT-SCC-8; [4]): 2.4 ± 3.8 DSS | drug sensitivity score (UT-SCC-8; [5]): 5.97 ± 4.5 DSS | drug sensitivity score (UT-SCC-14; [2]): 1.63 ± 2.7 DSS | drug sensitivity score (UT-SCC-14; [3]): 3.87 ± 2.3 DSS | drug sensitivity score (UT-SCC-14; [4]): 3.33 ± 3 DSS | drug sensitivity score (UT-SCC-14; [5]): 2.6 ± 4.5 DSS | drug sensitivity score (UT-SCC-106A; [1]): 4.63 ± 3.7 DSS | drug sensitivity score (UT-SCC-106A; [2]): 0.4 ± 0.69 DSS | drug sensitivity score (UT-SCC-106A; [3]): 8.13 ± 3.1 DSS | drug sensitivity score (UT-SCC-106A; [4]): 0.1 ± 0.17 DSS | drug sensitivity score (UT-SCC-106A; [5]): 7.53 ± 1 DSS | drug sensitivity score (UT-SCC-40; [1]): 6.87 ± 1.9 DSS | drug sensitivity score (UT-SCC-40; [2]): 2.33 ± 2.6 DSS | drug sensitivity score (UT-SCC-40; [3]): 3.7 ± 0.7 DSS | drug sensitivity score (UT-SCC-40; [4]): 0.433 ± 0.51 DSS | drug sensitivity score (UT-SCC-40; [5]): 0.267 ± 0.25 DSS | drug sensitivity score (UT-SCC-73; [1]): 0.0667 ± 0.12 DSS | drug sensitivity score (UT-SCC-73; [2]): 1.73 ± 3 DSS | drug sensitivity score (UT-SCC-73; [3]): 1.23 ± 2.1 DSS | drug sensitivity score (UT-SCC-73; [4]): 0.133 ± 0.15 DSS | drug sensitivity score (UT-SCC-73; [5]): 0.2 ± 0.27 DSS | drug sensitivity score (UT-SCC-42B; [1]): 12.3 ± 6.1 DSS | drug sensitivity score (UT-SCC-42B; [3]): 2.67 ± 4.6 DSS | drug sensitivity score (UT-SCC-42B; [4]): 0 DSS | drug sensitivity score (UT-SCC-42B; [5]): 1.07 ± 1.7 DSS | drug sensitivity score (UT-SCC-24B; [1]): 12.5 ± 1.3 DSS | drug sensitivity score (UT-SCC-24B; [2]): 10.1 ± 3.4 DSS | drug sensitivity score (UT-SCC-24B; [3]): 12.4 ± 1 DSS | drug sensitivity score (UT-SCC-24B; [4]): 5.73 ± 1.2 DSS | drug sensitivity score (UT-SCC-24B; [5]): 17.5 ± 0.64 DSS | drug sensitivity score (UT-SCC-44; [1]): 0 DSS | drug sensitivity score (UT-SCC-44; [2]): 0.567 ± 0.98 DSS | drug sensitivity score (UT-SCC-44; [3]): 0.5 ± 0.7 DSS | drug sensitivity score (UT-SCC-44; [4]): 1.03 ± 1.5 DSS | drug sensitivity score (UT-SCC-44; [5]): 0.167 ± 0.29 DSS | drug sensitivity score (UT-SCC-42A; [2]): 0 DSS | drug sensitivity score (UT-SCC-42A; [3]): 5 ± 4 DSS | drug sensitivity score (UT-SCC-42A; [4]): 1.43 ± 1.6 DSS | drug sensitivity score (UT-SCC-42A; [5]): 2 ± 1.4 DSS | drug sensitivity score (UT-SCC-24A; [1]): 21.1 ± 1.1 DSS | drug sensitivity score (UT-SCC-24A; [3]): 17 ± 2.1 DSS | drug sensitivity score (UT-SCC-24A; [4]): 3.27 ± 2.5 DSS | drug sensitivity score (UT-SCC-24A; [5]): 16.4 ± 3.7 DSS

Source: the supplement of paper PMC7017272
